The values below come from US11911469B2, “Combination of ACAT1 inhibitor and checkpoint antibody for treating cancer” (Shanghai Institutes for Biological Sciences, Chinese …, priority 2016, dated 2024).

In one series the test system is CD8+ T cells. Kind of series: Cytokine and cytolytic granule production of stimulated CD8+ T cells. It counts as cell-based, mouse. The note with it: pretreated cells stimulated with 5 μg ml−1 plate-bound anti-CD3/CD28; versus vehicle (DMSO). How it is done: Peripheral T cells were isolated from mouse spleen and draining lymph nodes by a CD8^+ or CD4^+ T cell negative selection kit (Stem cell). To analyse the tumour-infiltrating T cells, tumours were first digested by collagenase IV (sigma), and tumour-infiltrating leukocytes were isolated by 40-70% percoll (GE) gradient centrifugation. To measure the effector function of CD8^+ T cells, the isolated cells were first stimulated with 1 μM ionomycin and 50 ng/ml PMA for 4 hours in the presence of 5 μg/ml BFA, and then stained with PERCP-α-CD8a. Next, cells were fixed with 4% PFA and stained with FITC-α-Granzyme B, APC-α-IFNγ and PE-α-TNFα. In general, to gate the cytokine or granule producing cells, T cells without stimulation or stained with isotype control antibody were used as negative controls. This gating strategy is applicable for most of the flow cytometric analyses. To detect the MDSCs (myeloid-derived suppressor cells) in the tumour, the percoll isolated leukocyte were stained with α-CD45, α-CD11b and α-Ly6G (Gr1), the CD45^+ population was gated, after which the MDSC population (CD11b^+ Gr1^+) in CD45^+ were gated.
(§1) CD8^+ T cells were pretreated with vehicle (dimethylsulfoxide, DMSO), CP-113,818 or K604. Then the cells were stimulated with 5 μg ml^−1 plate-bound anti-CD3/CD28, and cytokine and cytolytic granule production was studied. Cytotoxicity of OT-I CTLs pretreated with CP-113,818 or K604 or vehicle was also studied.

The next series has as its system OT-I CTLs. Kind of series: Cytotoxicity of OT-I CTLs against antigen-pulsed EL-4 cells (LDH assay). It counts as cell-based, mouse. The note with it: for cytotoxicity of CD8+ T cells: OT-I CTLs pretreated with compound or vehicle. As for the experimental part: To generate mature Cytotoxic T lymphocytes (CTLs), splenocytes isolated from Acat1^CKO-OT-I mice or WT OT-I mice were stimulated with OVA257-264 (N4) for 3 days in the presence of 10 ng/ml IL-2. Cells were centrifuged and cultured in fresh medium containing 10 ng/ml IL-2 for 2 more days, after which most of the cells in the culture were CTLs. To measure CD8^+ T-cell cytotoxicity, EL-4 cells were pulsed with 2 nM antigenic peptide (N4, A2, T4, G4, R4 or Catnb) for 30 minutes. After washing EL-4 cells and CTLs three times with PBS, we mixed CTLs and antigen-pulsed EL-4 cells (1×10^5) in the killing medium (phenol free-RPMI 1640, 2% FBS), at the ratio of 1:1, 1:2 and 1:5, respectively. After 4 hours, the cytotoxic efficiency was measured by quantifying the release of endogenous lactate dehydrogenase (LDH) from EL-4 cells using a CytoTox 96 Non-Radioactive Cytotoxicity kit (Promega).
as §1
(§2) To study ACAT1 inhibitors in cancer immunotherapies in mice, melanoma-bearing mice were treated with a potent ACAT-1 inhibitor, avasimibe (Ava), or DMSO control, and tumour size and survival were studied. A combined therapy (avasimibe and anti-PD-1) or monotherapies (avasimibe or anti-PD-1) were also studied and compared in treating melanoma. In a lung cancer model, Lewis lung carcinoma-bearing mice were treated with avasimibe or DMSO control, and tumour multiplicity and survival were studied. Cytokine productions of stimulated human (h) CD8^+ T cells pretreated with avasimibe, CP-113,818, or DMSO. CTL cytotoxicity after avasimibe treatment was measured by the LDH assay. OT-I CTLs were pretreated with avasimibe or vehicle for 6 h and then incubated with EL-4 cells pulsed with OVA257-264 peptide for 4 h.

The next series deals with B16F10 cells. The experiment in a line: Skin melanoma mouse model, avasimibe therapy. It is filed as in vivo. The note with it: melanoma-bearing mice; avasimibe 15 mg/kg intraperitoneally every 2 days from Day 10; versus DMSO control. As for the experimental part: B16F10 cells were washed three times with PBS, filtered by a 40 μm strainer. […] From Day 10, tumour size was measured every 2 days, and animal survival rate was recorded every day. Tumour size was calculated as length×width. Mice with tumour size larger than 20 mm at the longest axis were euthanized for ethical consideration. To analyse effector function of tumour-infiltrating T cells, mice were euthanized on Day 16. In the avasimibe therapy, on Day 10 mice bearing tumour of similar size were randomly divided into two groups. From Day 10, avasimibe was injected intraperitoneally to the mice at the dose of 15 mg/kg every 2 days.
as §2, with “OT-I CTLs were pretreated with avasimibe or vehicle for 6 h and then incubated with EL-4 cells pulsed with OVA257-264 peptide for 4 h.” left out

In series [1] the test system is Lewis lung carcinoma (LLC). Kind of series: Lewis lung carcinoma (LLC) model, avasimibe therapy. It is filed as in vivo, mice. Particulars: avasimibe 15 mg/kg intraperitoneally every 3 days, Day 10 to Day 35; versus DMSO control. As for the experimental part: The LLC cells were washed twice with PBS and filtered by a 40 μm strainer. After which, the LLC cells (2×10^6) were intravenously injected into WT or Acat1^CKO mice at the age of 8-10 weeks. To detect the tumour multiplicity in the lung, the mice were euthanized at Day 35 post tumour inoculation and tumour numbers in the lung were counted. In the avasimibe therapy, on Day 10 mice were randomly divided into two groups. From Day 10 to Day 35 post tumour inoculation, avasimibe was injected intraperitoneally to the mice at the dose of 15 mg/kg every 3 days.
as §2

For the next series, the system named is human CD8+ T cells. The experiment in a line: Human CD8+ T-cell cytokine production. Particulars: PBMCs pretreated 12 hours, stimulated with plate-bound α-CD3 and α-CD28 (5 μg/ml each) for 24 hours; versus DMSO. It counts as cell-based. As for the experimental part: Human peripheral blood mononuclear cells (PBMCs) from healthy donators were stimulated with 5 μg/ml PHA (Sigma) for 2 days and then rested for 1 day. Cells were pretreated with vehicle (DMSO), CP113, 818 or avasimibe for 12 hours and then stimulated with plate-bound α-CD3 (5 μg/ml) and α-CD28 (5 μg/ml) antibodies for 24 hours. Intracellular staining and flow cytometry were used to assess cytokines production of CD8^+ T cells. […] A combined therapy (avasimibe and anti-PD-1) or monotherapies (avasimibe or anti-PD-1) were also studied and compared in treating melanoma. In a lung cancer model, Lewis lung carcinoma-bearing mice were treated with avasimibe or DMSO control, and tumour multiplicity and survival were studied. […] CTL cytotoxicity after avasimibe treatment was measured by the LDH assay. OT-I CTLs were pretreated with avasimibe or vehicle for 6 h and then incubated with EL-4 cells pulsed with OVA257-264 peptide for 4 h.

For series [2] the following is noted: doses at least up to 750 mg four times daily (i.e., 3000 mg/day); cited from earlier work.

As to `CCN(CC)CCO[C@H]1CC[C@@]2(C)C(=CC[C@@H]3[C@@H]2CC[C@]2(C)C(=O)CC[C@@H]32)C1` [U18666A], in the series with CD8+ T cells, the “cytolytic granule and cytokine productions of CD8+ T cells” value was “significantly decreased”.
The same measure, in the same setting: as for `CC[C@H](C)C(=O)O[C@H]1C[C@@H](C)C=C2C=C[C@H](C)[C@H](CC[C@@H]3C[C@@H](O)CC(=O)O3)[C@H]21` [Lovastatin], the entry is “significantly decreased”.
Regarding `CSc1cc(C)nc(SC)c1NC(=O)CN1CCN(CCSc2nc3ccccc3[nH]2)CC1` [K604, 2-[4-[2-(benzimidazol-2-ylthio)ethyl]piperazin-1yl]-N-[2,4-bis(methylthio)-6-methyl-3-pyridyl]acetamide], the “cytolytic granule and cytokine productions of CD8+ T cells” value in the series on CD8+ T cells is given as “augmented”. Further, in the series on OT-I CTLs, the “cytotoxicity of CD8+ T cells” value was “augmented”.
Regarding `CC(C)c1cc(C(C)C)c(CC(=O)NS(=O)(=O)Oc2c(C(C)C)cccc2C(C)C)c(C(C)C)c1` [avasimibe, [2,6-di(propan-2-yl)phenyl] N-[2-[2,4,6-tri(propan-2-yl)phenyl]acetyl]sulfamate], the “effector function of mouse CD8+ T cells ex vivo (CTL cytotoxicity, LDH assay)” value with OT-I CTLs (OT-I CTLs pretreated for 6 h, then incubated with OVA257-264 pulsed EL-4 cells for 4 h) is reported as “enhance”. Moreover, in the series with B16F10 cells, the survival time entry is listed as “prolonged” and the tumour growth result is “inhibited”. For the same compound, the “antitumor effect in Lewis lung carcinoma (tumour multiplicity and survival)” value in series [1] is recorded as “good antitumor effect”. Moreover, the “cytokine production of human CD8+ T cells” value with human CD8+ T cells is listed as “enhanced”. For the same compound, in series [2], the “tolerability in adult human subjects” value is listed as “well tolerated”.
As for `CCCCCCCC[C@H](SCCCCCC)C(=O)Nc1c(SC)cc(C)nc1SC` [CP-113,818, (S)-N-(2,4-Bis(methylthio)-6-methylpyridin-3-yl)-2-(hexylthio)decanoic acid amide], in the series on CD8+ T cells, the “cytolytic granule and cytokine productions of CD8+ T cells” value was “augmented”. Further, the “cytotoxicity of CD8+ T cells” value in the series on OT-I CTLs was “augmented”.
